{"source": "paper PMC8308845", "about": "“Discovery of Novel Chemical Series of OXA-48 β-Lactamase Inhibitors by High-Throughput Screening” (Pharmaceuticals, 2021)", "key": {"OXA-48 [1]": {"molecular_target": "T1, OXA-48 (Klebsiella pneumoniae, UniProt Q6XEC0)", "T1 construct": "made in house; host or cells: E. coli BL21(DE3), T7 expression system", "T1 sequence (Q6XEC0 23-265, looked up)": "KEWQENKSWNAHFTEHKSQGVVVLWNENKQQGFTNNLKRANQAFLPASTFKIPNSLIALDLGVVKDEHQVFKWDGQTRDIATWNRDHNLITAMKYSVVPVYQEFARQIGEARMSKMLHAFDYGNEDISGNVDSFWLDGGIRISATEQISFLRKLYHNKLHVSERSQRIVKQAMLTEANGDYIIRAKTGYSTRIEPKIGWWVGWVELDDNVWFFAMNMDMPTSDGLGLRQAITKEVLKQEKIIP", "assay": "OXA-48 primary enzymatic assay (nitrocefin substrate, fluorescence-quenching readout)", "type": "biochemical", "details": "dose–response, median of triplicate wells; 15 min preincubation, 25 µM nitrocefin", "procedure": "After an initial pilot run (three plates, consisting of 960 randomly selected compounds), the primary screening of the subset plates was carried out at 20 µM in single point against OXA-48 enzyme in a nitrocefin-based assay, using the fluorescence-quenching readout. This enzymatic assay employs the cephalosporin nitrocefin as OXA-48 substrate and takes advantage of the fluorescent properties of white microtiter plates. Chromogenic nitrocefin is hydrolyzed by β-lactamases to yield a product with increased absorbance properties (~495 nm) that quenches the plate fluorescence by absorbing the plate’s emission light. In this assay, test compounds that inhibit OXA-48 catalytic activity are predicted to reduce nitrocefin quenching of plate fluorescence, resulting in a quantitative increase in well fluorescence (ON-system for inhibitors). The nitrocefin-based epi-absorbance readout system has been successfully applied in HTS campaigns on other β-lactamases, such as IMP-1 and VIM-2, with the identification of inhibitors belonging to novel scaffolds displaying a favourable degree of selectivity and sub-micromolar potency.\nThe screening results were expressed as activity percent. […] Overall, the primary assay robustness was good, with Robust Z Prime factor (RZ′) equal to 0.86.\nIn total, 256 active molecules (125 from the subset and 131 from the full set) were then assayed in dose–response at eight concentrations from 60 to 0.002 µM with interplate triplicate data points.\nThe blaOXA gene coding for the OXA-48 ß-lactamase, originally cloned from the K. pneumonia 11978 (a clinical isolate from Istanbul Faculty Hospital, Istanbul, Turkey) was overexpressed via a T7 expression system in E. coli BL21(DE3), and its product, native protein, (final yield of 30 mg/L of culture) was subjected to several purification steps, including ion-exchange chromatography with Q-Sepharose and 20 mM Tris-HCl buffer (pH 9.0), followed by chromatography with S-Sepharose columns and 100 mM sodium phosphate buffer (pH 5.8). Elution of the beta-lactamase was performed with a K2SO4 gradient. Peaks of beta-lactamase activity were concentrated and were dialyzed with 100 mM phosphate buffer (pH 7.0). The OXA-48 enzyme was purified to homogeneity (with a degree of purity around 95.4%.)-as measured by 12% SDS PAGE [23]. OXA-48 protein stock solution (2 mg/mL) was finally prepared in 20 mM Hepes (pH 8,1). OXA-48 β-lactamase specific activity was measured by following the hydrolysis of 100 μM nitrocefin (ε: 17,000 M-1 cm^−1 at 482 nm; Δε: 15,000 M-1 cm^−1 at 482 nm) and corresponding to 60.45 μmoles min^−1 mg^−1 of OXA-48 (kcat = 28.85 s^−1) enzyme. A MW of 28,147 g/mol, calculated from the enzyme sequence was confirmed by MALDI-TOF analysis with a Mass error of ± 2.8 Da.\nThe primary assay was developed to monitor the enzymatic activity of OXA-48 taking advantage of the spectroscopic properties of white microtiter plates (Optiplate-384, PerkinElmer, #6007290), as indicated by Zuck et al.. Nitrocefin is chromogenic substrate for beta-lactamases with λmax = 395 nm (yellow). Upon hydrolysis by OXA-48, nitrocefin yields (2R)-2-[(R)-carboxy[2-(thiophen-2-yl)acetamido]methyl]-5-[(E)-2-(2,4-dinitrophenyl)ethenyl]-3,6-dihydro-2H-1,3-thiazine-4-carboxylic acid, with increased absorbance properties at λmax = 495 nm. Spectroscopic features of the reaction product are exploited to quench the plate intrinsic fluorescence by absorbing the plate’s emission light, which can be monitored by exciting the reaction at 485 nm and recording the emission at 520 nm. Therefore, the primary assay for HTS was an ON-assay, in which compounds targeting OXA-48 were predicted to elicit an increase of the fluorescence signal.\nThe primary assay was performed in reaction buffer (20 mM Hepes pH 8.0, 12.5 mM NaCl, 0.005% BSA, 0.0005% Brij-35) in the presence of 0.0014 ng/µL OXA-48 and 25 µM nitrocefin in a final volume of 20 µL/well in 384 MTP format. […]"}, "OXA-48 [2]": {"molecular_target": "T1, OXA-48", "assay": "Time-dependent inhibition of OXA-48", "type": "biochemical", "details": "for dependence of AC50 on preincubation time with OXA-48: preincubation 0, 15, 30, 60, 90, 120, 180, 240 min", "procedure": "On this basis, compounds ID1 and ID2 as well as the irreversible reference inhibitor tazobactam were tested in dose–response against OXA-48 lactamase, by pre-incubating the compounds with the enzyme at different time points (0, 15, 30, 60, 90, 120, 180, 240 min) before starting the reaction upon addition of the nitrocefin substrate.\nExperimental conditions were identical to the ones applied for the primary assay for HTS: 20 μL of 2X compounds with 1% DMSO; 10 μL 4X enzyme (0.0014 ng/µL OXA-48 final concentration) were dispensed into preincubation plate. The reaction buffer was: 20 mM Hepes pH 8.0, 12.5 mM NaCl, 0.005% BSA-pf, 0.0005% Brij-35.\nPreincubation time was for a period spanning from 0 up to 240′ at rt between enzyme and compounds and for 15′ at rt between enzyme and control wells. The reactions were started by transferring of 15 μL of enzyme-compounds or enzyme-control from preincubation plate into assay plate adding 5 μL 4X nitrocefin substrate (25 µM final concentration) at different time points, at 0 (i.e., no preincubation)–15–30–60–90–120–180–240 min of preincubation between OXA-48 and compounds. Reading was at PHERAstar (BMG Labtechnologies), in kinetic for up to 60′ (λex: 485 nm; λem: 520 nm). Data were analyzed to determine the respective AC50 values obtained at all the tested preincubation time points.\nb. If the AC50 value was inversely proportional to the preincubation time with OXA-48, the compound was assigned as non-reversible inhibitor."}}, "data": [{"compound": "O=C(O)c1ccc(C=Nn2c(S)nnc2-c2ccccc2)cc1", "note": "[ID1]", "values": [{"measurement": "AC50", "setting": "OXA-48 [1]", "value": 1140, "unit": "nM"}, {"measurement": "dependence of AC50 on preincubation time with OXA-48", "setting": "OXA-48 [2]", "value": "independent on the preincubation time"}]}, {"compound": "CCc1ccc(-c2n[nH]c3nc(-c4ccc(C(=O)O)cc4)cc(C(=O)O)c23)cc1", "note": "[ID2]", "values": [{"measurement": "AC50", "setting": "OXA-48 [1]", "value": 990, "unit": "nM"}, {"measurement": "dependence of AC50 on preincubation time with OXA-48", "setting": "OXA-48 [2]", "value": "independent on the preincubation time"}]}, {"compound": "C[C@]1(Cn2ccnn2)[C@H](C(=O)O)N2C(=O)C[C@H]2S1(=O)=O", "note": "[tazobactam, reference compound]", "values": [{"measurement": "AC50", "setting": "OXA-48 [1]", "value": 840, "unit": "nM"}, {"measurement": "AC50 after preincubation relative to AC50 without preincubation", "setting": "OXA-48 [2]; plateau after 90 min of preincubation", "value": "almost six-fold lower"}, {"measurement": "dependence of AC50 on preincubation time with OXA-48", "setting": "OXA-48 [2]", "value": "inversely proportional time-dependent inhibition"}]}]}
